Measured values reported in US20110112133A1, “DIHYDRO PYRROLOQUINOLINE DERIVATIVES” (Takeda Pharmaceutical Company Limited, priority 2009, published 2011).
Counter-ions that a name gives are not always drawn.

Assays:
[1] = target: T1, hNK2 receptor (Homo sapiens, UniProt P21452); test: Radioligand receptor binding inhibitory activity using membrane fraction of hNK2 receptor-expressing CHO cell ([125I]-NKA); settings: for inhibition at 1 µM / inhibition at 0.1 µM / inhibition at 0.01 µM: read-out: hNK2 receptor binding inhibitory activity (inhibitory rate (%))
T1 construct: host or cells: CHO cells
T1 sequence (P21452 1-398): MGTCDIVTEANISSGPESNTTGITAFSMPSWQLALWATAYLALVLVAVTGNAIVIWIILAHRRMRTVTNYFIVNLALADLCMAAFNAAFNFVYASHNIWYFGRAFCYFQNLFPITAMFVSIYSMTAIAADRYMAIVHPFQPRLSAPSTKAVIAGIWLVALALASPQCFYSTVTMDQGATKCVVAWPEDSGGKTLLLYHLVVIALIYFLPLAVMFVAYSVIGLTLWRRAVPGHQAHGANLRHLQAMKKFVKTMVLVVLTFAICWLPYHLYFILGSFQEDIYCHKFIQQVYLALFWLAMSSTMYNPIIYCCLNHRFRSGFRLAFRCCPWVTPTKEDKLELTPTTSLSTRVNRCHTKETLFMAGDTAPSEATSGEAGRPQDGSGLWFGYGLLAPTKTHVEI
Procedure: Radioligand Receptor Binding Inhibitory Activity Using Membrane Fraction of hNK2 Receptor-Expressing CHO Cell
hNK2 receptor-expressing CHO cells (produced by EUROSCREEN) were cultured in a flask placed HAM-F12 medium containing 400 μg/mL Geneticin, 100 U/mL penicillin, 100 μg/mL streptomycin and 10% inactivated serum. The medium was removed and adhered cells were washed with PBS, and PBS containing 5 mM EDTA was added to detach the cells from the flask. The cells were recovered by centrifugation, suspended in suspending buffer A (15 mM Tris-HCl (pH 7.5), 12.5 mM MgCl2, 0.3 mM EDTA, 1 mM EGTA (Ethylene Glycol Bis(beta-aminoethylether)-N,N,N,N-tetraacetic Acid)), disrupted by POLYTRON homogenizer (manufactured by KINEMATICA) and centrifuged at 850×g for 10 min at 4° C. The supernatant was recovered and ultracentrifuged at 142000×g for 60 min at 4° C. The precipitated fraction was suspended in suspending buffer B (7.5 mM Tris-HCl (pH 7.5), 12.5 mM MgCl2, 0.3 mM EDTA, 1 mM EGTA, 250 mM sucrose), and cryopreserved (at −80° C.) as a membrane fraction preparation of hNK2 receptor-expressing CHO cell.
The radioligand receptor binding assay was performed in a 96 well microassay plate format with a final volume of 200 μL.
An assay buffer (50 μL, 50 mM Tris-HCl (pH 7.4), 0.02% bovine serum albumin, 2 μg/mL chymostatin, 40 μg/mL bacitracin, 40 μg/mL APMSF, 3 mM MnCl2) was added to a 96 well microassay plate. Thereto was added 50 μL of the above-mentioned cryopreserved membrane fraction preparation suspended in the assay buffer (20 μg/mL). An assay buffer (50 μL) containing 2% dimethyl sulfoxide was added to examine the total binding, 4 μM unlabeled NKA (produced by Peptide Institute, Inc.) solution (50 μL) diluted with an assay buffer containing 2% dimethyl sulfoxide was added to examine non-specific binding, and a test compound diluted with an assay buffer (50 μL, containing 2% dimethyl sulfoxide) was added. Furthermore, […] [^125I]-NKA (produced by NEN) solution (50 μL) was added to each well.
After reaction at room temperature for 30 min, using a cell harvester (manufactured by PerkinElmer), the reaction was stopped by rapid filtration on a unifilter plate (GF/C) (manufactured by PerkinElmer), which had been immersed in 0.3% aqueous polyethyleneimine solution for one day, and the cells were washed 10 times with 50 mM Tris-HCl (pH 7.4) buffer (250 μL) containing 0.02% bovine serum albumin. The GF/C filter plate was dried and 20 μL of MicroScinti-0 (manufactured by PerkinElmer) was added to each well and the radioactivity was measured by TopCount (manufactured by PerkinElmer).
Specific binding is shown by the value obtained by subtracting non-specific binding from the total binding. The binding inhibitory activity of the test compound is shown by the ratio of the value obtained by subtracting the measured value associated with the addition of the test compound from the total binding, to the value of the specific binding.

SMILES | inhibition at 1 µM ([1]; test compound 10^−6 M) [%] | inhibition at 0.1 µM ([1]; test compound 10^−7 M) [%] | inhibition at 0.01 µM ([1]; test compound 10^−8 M) [%] | melting point [°C] | hNK2 receptor binding inhibitory activity (inhibitory rate (%)) ([1]; test compound 10^−6 M) [%] | hNK2 receptor binding inhibitory activity (inhibitory rate (%)) ([1]; test compound 10^−7 M) [%] | hNK2 receptor binding inhibitory activity (inhibitory rate (%)) ([1]; test compound 10^−8 M) [%]
Cc1ccn(-c2ccc(C(=O)N[C@@H]3CCC(F)(F)C[C@@H]3C(=O)N3CCc4c(-c5ncc[nH]5)nc5ccccc5c43)cc2)n1.Cl [Example 12, N-[(1R,2S)-4,4-difluoro-2-{[4-(1H-imidazol-2-yl)-2,3-dihydro-1H-pyrrolo[3,2-c]quinolin-1-yl]carbonyl}cyclohexyl]-4-(3-methyl-1H-pyrazol-1-yl)benzamide hydrochloride] | 101 | 101 | 99.8 | 232 |  |  | 
Cc1ccn(-c2ccc(C(=O)N[C@@H]3CCC(F)(F)C[C@@H]3C(=O)N3CCc4c(-c5ccccc5)nc5ccc(F)cc5c43)cc2)n1.Cl [Example 10, N-{(1R,2S)-4,4-difluoro-2-[(8-fluoro-4-phenyl-2,3-dihydro-1H-pyrrolo[3,2-c]quinolin-1-yl)carbonyl]cyclohexyl}-4-(3-methyl-1H-pyrazol-1-yl)benzamide hydrochloride] |  |  |  |  | 99.9 | 99.5 | 92.8
Cc1ccn(-c2ccc(C(=O)N[C@@H]3CCC(F)(F)C[C@@H]3C(=O)N3CCc4c(-c5ncc[nH]5)nc5ccc(F)cc5c43)cc2)n1 [Example 6, N-[(1R,2S)-4,4-difluoro-2-{[8-fluoro-4-(1H-imidazol-2-yl)-2,3-dihydro-1H-pyrrolo[3,2-c]quinolin-1-yl]carbonyl}cyclohexyl]-4-(3-methyl-1H-pyrazol-1-yl)benzamide hydrochloride] | 99.4 | 99.4 | 96.1 |  |  |  | 
Cc1ccn(-c2ccc(C(=O)N[C@@H]3CCC(F)(F)C[C@@H]3C(=O)N3CCc4c(-c5ccsc5)nc5ccccc5c43)cc2)n1.Cl [Example 8] |  |  |  |  | 100.7 | 100.2 | 98.5
